Measurements reported in patent publication US9862740B2, “Process for preparing novel forms of tiacumicin B” (Olon S.P.A., priority 2014, dated 2018).

Assay: Particle size distribution (Psd comparison) of Tiacumicin B crystals
Type: physicochemical
Conditions: in µm (unit assumed)
Protocol: 3000 g of pure Tiacumicin B were dissolved in about 40 L of CH3OH. 80 L of (C2H5)2O were added under stirring to the solution at the room temperature. The solution was then heated at 39° C. and the mixer speed was set at 20 rpm; 160 L of n-Pentane were added in about 30 minutes. The mixer speed was then set at 15 rpm and the solution was cooled at 5° C. in about 5 hours. The suspension was then filtered and product dried under vacuum. The crystal obtained has a not well defined crystal shape and a high amount of fine that make the product difficult to formulate. […] of pure Tiacumicin B were dissolved in 33 mL of CH3OH. 66 mL of (C2H5)2O were added under stirring to the solution at the room temperature. The solution was then heated at 39° C. and the mixer speed was set at 400 rpm; 132 mL of n-Pentane were added in about 30 minutes. The mixer speed was then set at 200 rpm and the solution was cooled at 5° C. in about 60 minutes. The suspension was heated at 30° C. and maintained at this temperature for about 30 minutes; then the suspension was cooled at 5° C. in about 60 minutes. The suspension was heated at 25° C. and maintained at this temperature for about 30 minutes; then the suspension was cooled at 5° C. in about 60 minutes. The suspension was heated at 15° C. and maintained at this temperature for about 30 minutes; then the suspension was cooled at 5° C. in about 60 minutes and maintained in this condition over night. The crystals obtained has a different more homogeneous and regular crystal habit respect to that obtained with the standard process and an improved psd (see FIGS. 3 and 4 and Table). 2000 g of pure Tiacumicin B were dissolved in 26 L of CH3OH. 52 L of (C2H5)2O were added under stirring to the solution at the room temperature. The solution was then heated at 39° C. and the mixer speed was set at 20 rpm; 130 L of n-Pentane were added in about 30 minutes. The mixer speed was then set at 8 rpm and the solution was cooled at 35° C. and maintained at this temperature for about 60 minutes. The suspension was cooled at 30° C. and maintained at this temperature for about 60 minutes. Then the suspension was cooled at 25° C. and maintained at this temperature for about 30 minutes. Then the suspension was cooled at 20° C. and maintained at this temperature for about 30 minutes. Then the suspension was cooled at 15° C. and maintained at this temperature for about 30 minutes. Then the suspension was cooled at 10° C. and maintained at this temperature for about 30 minutes. Then the suspension was cooled at 5° C. and maintained at this temperature for about 30 minutes. The suspension was heated at 30° C. and maintained at this temperature for about 30 minutes; then the suspension was cooled at 5° C. in about 60 minutes. The suspension was heated at 25° C. and maintained at this temperature for about 30 minutes; then the suspension was cooled at 5° C. in about 60 minutes. The suspension was heated at 15° C. and maintained at this temperature for about 30 minutes; then the suspension was cooled at 5° C. in about 60 minutes and maintained in this condition over night. The crystals obtained has a different more homogeneous and regular crystal habit respect to that obtained with the standard process and an improved psd (see FIGS. 3 and 4 and Table).

For `CCc1c(Cl)c(O)c(Cl)c(O)c1C(=O)O[C@H]1[C@H](O)[C@H](OC)[C@H](OC/C2=C\C=C\C[C@H](O)/C(C)=C/[C@H](CC)[C@@H](O[C@@H]3OC(C)(C)[C@@H](OC(=O)C(C)C)[C@H](O)[C@@H]3O)/C(C)=C/C(C)=C/C[C@@H]([C@@H](C)O)OC2=O)O[C@@H]1C` [Example 2, Tiacumicin B], the “D(0.1)” value was 10.82, the “D(0.5)” value was 35.94 and the “D(0.9)” value was 73.79.
In the case of `CCc1c(Cl)c(O)c(Cl)c(O)c1C(=O)O[C@H]1[C@H](O)[C@H](OC)[C@H](OC/C2=C\C=C\C[C@H](O)/C(C)=C/[C@H](CC)[C@@H](O[C@@H]3OC(C)(C)[C@@H](OC(=O)C(C)C)[C@H](O)[C@@H]3O)/C(C)=C/C(C)=C/C[C@@H]([C@@H](C)O)OC2=O)O[C@@H]1C` [Example 3, Tiacumicin B], the “D(0.1)” value is reported as 7.04, the “D(0.5)” value is reported as 23.98 and the “D(0.9)” value is reported as 55.27.
With `CCc1c(Cl)c(O)c(Cl)c(O)c1C(=O)O[C@H]1[C@H](O)[C@H](OC)[C@H](OC/C2=C\C=C\C[C@H](O)/C(C)=C/[C@H](CC)[C@@H](O[C@@H]3OC(C)(C)[C@@H](OC(=O)C(C)C)[C@H](O)[C@@H]3O)/C(C)=C/C(C)=C/C[C@@H]([C@@H](C)O)OC2=O)O[C@@H]1C` [Example 1, Tiacumicin B] the “D(0.1)” value was 3.90, the “D(0.5)” value was 11.36 and the “D(0.9)” value was 27.35.
